This passage reports PA-7 (MIC) and EC-1 (MIC) results from patent publication US8846933B2, “N-link hydroxamic acid derivatives useful as antibacterial agents” (Pfizer Inc., priority 2009, dated 2014).

Each structure is given as a SMILES string.

Assay [1] relates to Pseudomonas aeruginosa UI-18: Wild-type (PA-7). Briefly: MIC determination (CLSI), strain PA-7. It is filed as cell-based. The following applies: strain PA-7; unit assumed. In short, it runs like this: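 MIC determined by broth dilution per CLSI M7-A7 guidelines with M100-S18 interpretive standards. Test organism: wild-type Pseudomonas aeruginosa UI-18, designated PA-7.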
In assay [2] the test system is Escherichia coli EC-1: VOGEL, mouse virulent. Briefly: MIC determination (CLSI), strain EC-1. It is filed as cell-based. The following applies: strain EC-1; unit assumed. The essentials: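 The mouse-virulent VOGEL isolate of E. coli, EC-1, served as test organism. Minimum inhibitory concentration was measured by CLSI dilution methodology (M7-A7; M100-S18 standards).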

Consider `C[C@@](CCn1ccc(-c2ccc(-c3ncns3)cc2)cc1=O)(C(=O)NO)S(C)(=O)=O` [Example 419, (2R)-N-hydroxy-2-methyl-2-(methylsulfonyl)-4-{2-oxo-4-[4-(1,2,4-thiadiazol-5-yl)phenyl]pyridin-1(2H)-yl}butanamide], for which the PA-7 (MIC) in assay [1] came out at 1 µg/mL. Also, the EC-1 (MIC) in assay [2] is 0.25 µg/mL.
In assay [1], `Cc1cnc(N2CC=C(c3ccn(CC[C@](C)(C(=O)NO)S(C)(=O)=O)c(=O)c3)CC2)nc1` [Example 420, (2R)-N-hydroxy-2-methyl-4-[1′-(5-methylpyrimidin-2-yl)-2-oxo-1′,2′,3′,6′-tetrahydro-4,4′-bipyridin-1(2H)-yl]-2-(methylsulfonyl)butanamide] came in with a PA-7 (MIC) of 8 µg/mL. Also, the EC-1 (MIC) in assay [2] worked out at 4 µg/mL.
The like results for `C[C@@](CCn1ccc(-c2ccc(-n3cnnn3)cc2)cc1=O)(C(=O)NO)S(C)(=O)=O` [Example 421, (2R)-N-hydroxy-2-methyl-2-(methylsulfonyl)-4-{2-oxo-4-[4-(1H-tetrazol-1-yl)phenyl]pyridin-1(2H)-yl}butanamide] were, in that order, 64 µg/mL and over 64 µg/mL.
As to `Cc1cccc(-c2ccc(-c3ccn(CC[C@](C)(C(=O)NO)S(C)(=O)=O)c(=O)c3)cc2)n1` [Example 422, (2R)-N-hydroxy-2-methyl-4-{4-[4-(6-methylpyridin-2-yl)phenyl]-2-oxopyridin-1(2H)-yl}-2-(methylsulfonyl)butanamide], in assay [1], the PA-7 (MIC) was 4 µg/mL. This compound returned an EC-1 (MIC) in assay [2] of 0.5 µg/mL.
In turn, `C[C@@](CCn1ccc(-c2ccc(-c3cncnc3)cc2)cc1=O)(C(=O)NO)S(C)(=O)=O` [Example 423] had a PA-7 (MIC) in assay [1] of 4 µg/mL. Moreover, the EC-1 (MIC) in assay [2] was 1 µg/mL.
`C[C@@](CCn1ccc(-c2ccc(Oc3ncccn3)cc2)cc1=O)(C(=O)NO)S(C)(=O)=O` [Example 424, (2R)-N-hydroxy-2-methyl-2-(methylsulfonyl)-4-{2-oxo-4-[4-(pyrimidin-2-yloxy)phenyl]pyridin-1(2H)-yl}butanamide] returned a PA-7 (MIC) in assay [1] of 4 µg/mL. Further, the EC-1 (MIC) in assay [2] was found to be 4 µg/mL.
In turn, `C[C@@](CCn1ccc(-c2ccc(Oc3ccccc3C#N)cc2)cc1=O)(C(=O)NO)S(C)(=O)=O` [Example 426, (2R)-4-{4-[4-(2-cyanophenoxy)phenyl]-2-oxopyridin-1(2H)-yl}-N-hydroxy-2-methyl-2-(methylsulfonyl)butanamide] yielded a PA-7 (MIC) in assay [1] of 1 µg/mL. Also, in assay [2], the EC-1 (MIC) is 0.25 µg/mL.
On to `C[C@@](CCn1ccc(-c2ccc(Oc3ncccc3C#N)cc2)cc1=O)(C(=O)NO)S(C)(=O)=O` [Example 427, (2R)-4-[4-{4-[(3-cyanopyridin-2-yl)oxy]phenyl}-2-oxopyridin-1(2H)-yl]-N-hydroxy-2-methyl-2-(methylsulfonyl)butanamide], for which, in assay [1], the PA-7 (MIC) is 2 µg/mL. In assay [2], this compound gave an EC-1 (MIC) of 2 µg/mL.
`C[C@@](CCn1ccc(-c2ccc(Oc3cc(Cl)ccn3)cc2)cc1=O)(C(=O)NO)S(C)(=O)=O` [Example 428, (2R)-4-[4-{4-[(4-chloropyridin-2-yl)oxy]phenyl}-2-oxopyridin-1(2H)-yl]-N-hydroxy-2-methyl-2-(methylsulfonyl)butanamide]: the PA-7 (MIC) in assay [1] turned out to be 1 µg/mL. The compound further yielded an EC-1 (MIC) in assay [2] of 0.125 µg/mL.
In turn, `C[C@@](CCn1ccc(-c2ccc(Oc3ccc(Cl)cn3)cc2)cc1=O)(C(=O)NO)S(C)(=O)=O` [Example 430, (2R)-4-[4-{4-[(5-chloropyridin-2-yl)oxy]phenyl}-2-oxopyridin-1(2H)-yl]-N-hydroxy-2-methyl-2-(methylsulfonyl)butanamide] registered a PA-7 (MIC) in assay [1] of 2 µg/mL. The same compound yielded an EC-1 (MIC) in assay [2] of 0.125 µg/mL.
The compound `C[C@@](CCn1ccc(-c2ccc(Oc3ccccn3)cc2)cc1=O)(C(=O)NO)S(C)(=O)=O` [Example 436, (2R)-N-hydroxy-2-methyl-2-(methylsulfonyl)-4-{2-oxo-4-[4-(pyridin-2-yloxy)phenyl]pyridin-1(2H)-yl}butanamide] came in with a PA-7 (MIC) in assay [1] of 2 µg/mL. In assay [2], this compound gave an EC-1 (MIC) of 0.5 µg/mL.
